Test results as given in US20050059588A1, “Peptides which generate antibodies resulting in lysis of pathologically adherent erythrocytes” (REGENTS OF THE UNIVERSITY OF CALIFORNIA, priority 2003, published 2005).

Experiments:
[1] = tested on: CD36; experiment: Cytoadherence assay: binding of infected erythrocytes made from AE1-modified erythrocytes to immobilized CD36; assay type: cell-based, human; details: for binding of treated IEs to CD36, in words: immobilized CD36; for percentage of bound IEs/mm^2 as compared to untreated cells, CD36: uninfected erythrocytes treated (0.5 mg/ml chymotrypsin, 100 μM DIDS or 0.25 mg/ml FMA), then infected, harvested after 40 hr, mean ±SD of triplicate
Method: (§1) Uninfected erythrocytes were treated with either 0.25 mg/ml fluorescein maleimide (FMA) (1 hr at 25° C.), 100 μM DIDS (1 hr at 37° C.) or with 0.5 mg/ml chymotrypsin (0.5 hr at 37° C.). Modified erythrocytes were infected and after 40 hr, mature stages were harvested and a standard cytoadherence assay using CD36 or TSP immobilized on slides was carried out. The numbers are the percentage of bound IEs/mm^2 as compared to untreated cells. Each value represents the mean ±SD of triplicate determinations.
(§2) Partially purified CD36 (CD36 fraction) was obtained from human platelets essentially by the method of Tandon et al., J. Biol Chem, 264:7570 (1989). However, the last purification step, using Ultrogel AcA-44, was omitted. TSP was purified as described in Layler et al., J Biol Chem, 253:8609 (1978). To remove excess amount of Triton X-100 in CD36 solution, 5 ml of a CD36 solution containing 0.1% Triton X-100 (initial concentration 268 μg protein/ml) was incubated with 0.5 g of SM-2 beads (Bio-Rad, Hercules, Calif.) at room temperature for 2 h and dialyzed against 500 ml of distilled water. Five microliters of the dialyzed solution was mounted onto multi-well glass slides, and incubated at 4° C. overnight. To immobilize TSP, 5 μl of TSP solution (50 μg/ml in 50 mM Bis-Tris, 100 mM NaCl, 25 mM calcium lactate, pH 7.4 (BTC)) was spotted on plastic slides (Permanox® plastic, Nunc, Neperville, Ill.) and incubated at 4° C. overnight. After removal of the solution by gentle aspiration, CD36- and TSP-immobilized spots were blocked with 1% BSA in phosphate buffered saline (PBS) at room temperature for 1 h.
(§3) Cytoadherence assays were performed as described in Crandall et al., Exp Parasitol, 73:362 (1991) (“Crandall 1991”). In the case of inhibition assay using peptides, the spots of immobilized protein were pretreated with 10 μl of peptide solution (200 μg/ml) in Bis-Tris buffer (50 mM Bis-Tris, 100 mM NaCl, 2 mM CaCl2, pH 6.6 for CD36; 50 mM Bis-Tris, 100 mM NaCl, 2 mM CaCl2, pH 7.4 for 677 cells; BTC for TSP) at 37° C. for 1 h. After removal of the peptide solution, the slides were placed in individual compartments of a partitioned plastic box containing 7 ml Bis-Tris buffer. Fifty microliters of packed red cells (5-10% parasitemia) was added to each compartment of the plastic box. After incubation at 37° C. for 90 min with gentle rocking, the red cell suspension was carefully aspirated. The slides were rinsed by adding 7 ml of the buffer and 5 min of rocking after which time the buffer was aspirated. The slides were washed three times, fixed, and stained as described in Crandall 1991. The number of bound infected red cells/mm^2 area of immobilized protein was counted by light microscopy.

[2] = tested on: TSP; experiment: Cytoadherence assay: binding of infected erythrocytes made from AE1-modified erythrocytes to immobilized TSP; assay type: cell-based; details: for binding of treated IEs to TSP, in words: immobilized TSP; for percentage of bound IEs/mm^2 as compared to untreated cells, TSP: uninfected erythrocytes treated (0.5 mg/ml chymotrypsin, 100 μM DIDS or 0.25 mg/ml FMA), then infected, harvested after 40 hr, mean ±SD of triplicate
Method: as §1, §2, §3

[3] = biological target: T1, CD36 transfected CHO cells (Homo sapiens, UniProt P16671); experiment: Interaction of biotin labeled DBR peptide with CD36 transfected CHO cells; assay type: binding; details: 40 μg/ml biotin labeled peptide, 1 hour at 37° C.
T1 construct: expressed in transfected cells; host or cells: CHO cells
Method: FIG. 2. Interaction of DBR peptide with CD36 transfected CHO cells. Cells were incubated for 1 hour at 37° C. with 40 μg/ml biotin labeled peptide, followed by 20 μg/ml Alexa-conjugated streptavidin.
To confirm that the DIDS binding region (DBR) of AE1 is involved in IE adhesion, two different kinds of in vitro assays were carried out.

[4] = biological target: T2, CD36 (Homo sapiens, UniProt P16671); experiment: Competitive binding assay: inhibition of IE binding to immobilized CD36 by DBR peptide; assay type: cell-based; details: immobilized CD36 incubated with peptide before cytoadherence assay
T2 construct: Partially purified CD36 (CD36 fraction) was obtained from human platelets; from tissue; host or cells: human platelets
Method: FIG. 3. […] Immobilized CD36 was incubated with the indicated concentrations of DBR peptide, and then a cytoadherence assay was conducted as shown in the legend of Table 1. Each value represents the mean ±SD of triplicate determinations.
as §2, with “After removal of the solution by gentle aspiration, CD36- and TSP-immobilized spots were blocked with 1% BSA in phosphate buffered saline (PBS) at room temperature for 1 h.” left out
Cytoadherence assays were performed as described in Crandall et al., Exp Parasitol, 73:362 (1991) (“Crandall 1991”). […] The number of bound infected red cells/mm^2 area of immobilized protein was counted by light microscopy.

[5] = tested on: immunoglobulins from individuals living in a malaria endemic region; experiment: ELISA: binding of IE-surface-eluted human immunoglobulins to immobilized DBR peptide; details: surface bound immunoglobulins eluted from IEs
Method: FIG. 4. Recognition of the DBR peptide by immunoglobulins from individuals living in a malaria endemic region (“immunes”). Human sera from either control or “immunes” were added to human erythrocytes infected with P. falciparum (“IEs”) and after incubation, the surface bound immunoglobulins were eluted using isotonic glycine buffer pH 3.0. Biotin labeled peptides were immobilized on 96 well plates using streptavidin, and the specific binding of the surface eluted immunoglobulins to the peptides was determined using alkaline phosphatase conjugated anti-human IgG.
To explore whether DBR is exposed as a consequence of parasite development, sera from individuals living in a region where malaria is endemic or from a control group was incubated with intact live IEs and the surface bound immunoglobulins eluted by a low pH treatment.

[6] = Tolerability in animals immunized with the peptide; assay type: in vivo, rabbit

T2 sequence (P16671 whole entry): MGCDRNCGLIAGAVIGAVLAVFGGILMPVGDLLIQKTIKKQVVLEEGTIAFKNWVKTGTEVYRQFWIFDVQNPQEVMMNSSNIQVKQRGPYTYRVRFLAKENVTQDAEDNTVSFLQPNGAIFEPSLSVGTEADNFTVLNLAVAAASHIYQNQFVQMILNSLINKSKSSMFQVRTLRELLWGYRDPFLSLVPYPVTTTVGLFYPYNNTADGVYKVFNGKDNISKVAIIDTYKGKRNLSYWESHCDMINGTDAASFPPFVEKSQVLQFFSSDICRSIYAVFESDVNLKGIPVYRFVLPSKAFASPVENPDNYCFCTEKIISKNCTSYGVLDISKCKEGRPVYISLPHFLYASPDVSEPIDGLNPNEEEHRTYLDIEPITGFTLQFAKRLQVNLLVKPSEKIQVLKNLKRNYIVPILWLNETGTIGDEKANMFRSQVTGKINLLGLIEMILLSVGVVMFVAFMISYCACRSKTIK
T1 sequence (P16671 whole entry): as above

Row | Compound | binding of treated IEs to CD36, in words [1] | percentage of bound IEs/mm^2 as compared to untreated cells, CD36 [1] | binding of treated IEs to TSP, in words [2] | percentage of bound IEs/mm^2 as compared to untreated cells, TSP [2] [percentage] | interaction with CD36 transfected CHO cells [3] | inhibition of IE binding to immobilized CD36 [4] | inhibition of IE binding to immobilized CD36 ([4]; listed as DBR peptides) | recognition of the DBR by immunoglobulins of individuals living in an endemic area [5] | anemia or other ill effects in immunized animals [6]
1 | Chymotrypsin | significant reduction | 10.2 + 17.5 percentage | largely unaffected | 81.0 ± 17.7 | – | – | – | – | –
2 | YETFSKLIKIFQDH [DBR peptide] | – | – | – | – | interacted with high affinity and specificity | Concentration dependent inhibition | inhibited the binding | strong humoral immune response | no anemia or other ill effects
3 | O=S(=O)(O)c1cc(N=C=S)ccc1C=Cc1ccc(N=C=S)cc1S(=O)(=O)O [DIDS, 4,4′-diisothiocyanatostilbene-2,2′-disulfonic acid] | lower binding to CD36 | 33.2 ± 4.1 percentage | not to TSP | 93.5 ± 35.9 | – | – | – | – | –
4 | O=C1OC2(c3ccc(O)cc3Oc3cc(O)ccc32)c2ccc(N3C(=O)C=CC3=O)cc21 [FMA, Fluorescein maleimide] | did not reduce the binding | 135.1 ± 12.9 percentage | did not reduce the binding | 180.9 ± 26.0 | – | – | – | – | –
